Results taken from article PMC12495443, “Developing inhibitors of the guanosine triphosphate hydrolysis accelerating activity of Regulator of G protein Signaling-14 [drawing 1]” (The Journal of Biological Chemistry, 2025).

Target: T1, human RGS14 RGS-box (wild-type) (Homo sapiens, UniProt O43566)
T1 construct: human RGS14 RGS-box (aa 46–195 of UniProt O43566); host or cells: E. coli
T1 sequence (O43566 46-195): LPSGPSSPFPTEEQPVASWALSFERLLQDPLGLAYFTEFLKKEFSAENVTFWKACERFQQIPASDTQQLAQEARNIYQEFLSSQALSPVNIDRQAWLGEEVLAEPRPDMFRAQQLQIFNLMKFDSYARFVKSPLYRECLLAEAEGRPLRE
Test: Transcreener GDP RGScreen fluorescence polarization assay of RGS14 RGS-box GAP activity on Gαi1(DM)
Type: biochemical
Settings: wild-type RGS14 RGS-box GAP activity, Gαi1(DM), Transcreener GDP RGScreen; read-out: RGS14 pIC50 (converted)
Text: We previously described work with BellBrook Labs creating the Transcreener GDP RGScreen fluorescence polarization assay of steady-state GTP hydrolysis, leveraging a double point-mutant in the Gα enzyme to make GTP hydrolysis, rather than GDP (product) release, the rate-limiting step for multiple rounds of GTP conversion ([57], [59]). […] Titrating inputs of the double point-mutant (“DM”) Gαi1 and RGS-box recombinant proteins (Fig. S2, B and C) established a robust, medium-throughput assay for evaluating potential RGS14 and RGS12 inhibitors, with “assay quality” Z′ scores ([60]) above 0.76 for each target (Fig. S2D).
Reagents and protocols for the fluorescence anisotropy-based Transcreener GDP RGScreen assay using a rate-altered, double point-mutant, recombinant Gαi1 protein have been extensively described previously ([43], [44]); reactions were always performed so that total GTP converted over the time course was consistently less than 10% of reaction maximum input. Specific methods for its application in assessing RGS14 and RGS12 GAP activity are summarized as follows. Open-reading frames (ORFs) encoding wild-type versions of the human RGS14 RGS-box (aa 46–195 of UniProt O43566) and human RGS12 RGS-box (aa 695–843 of UniProt O14924) were each sub-cloned in-frame with an N-terminal hexahistidine (His6) expression tag in the plasmid pET30a, expressed in E. coli cultures, and then purified by nickel-nitriloacetate (Ni-NTA) and size-exclusion (Superdex 200) column chromatographies by GenScript using previously described methods ([35]). These recombinant His6-tag fusion proteins were stored at −80 °C in storage buffer (150 mM NaCl, 50 mM Tris-HCl pH 8.0, 10% glycerol) before thawing and use. Cysteine-less versions were similarly produced by ORF site-directed mutagenesis: for RGS14, codons for cysteine residues 47 and 130 (numbered as in PDB id 2JNU) were replaced with serine codons; for RGS12, codons for cysteines 4, 51, 78, and 134 (numbered in relation to PDB id 2EBZ) were replaced with serine codons. Use of Transcreener GDP-detection reagents to assess compound inhibition of Naegleria fowleri Gα7 protein GTPase activity ([83]) has previously been described ([84]).

Row | SMILES | IC50 [µM]
1 | COc1ccc2nc(SCC(=O)c3ccc(F)cc3)[nH]c2c1 [Z16077977] | > 1000
2 | CCn1c(SC(C)C(=O)c2ccc3c(c2)CCC3)nc2cc(S(N)(=O)=O)ccc21 (stereo not drawn) [Z51418316] | > 1000
3 | CCc1ccc(C(=O)C(C)Sc2nc3cc(S(N)(=O)=O)ccc3n2CC)cc1 (stereo not drawn) [Z51418852] | > 1000
4 | CCCC(=O)Nc1ccc(C(=O)C(C)Sc2nc3ccc(OC)cc3[nH]2)cc1 (stereo not drawn) [Z50965416] | > 1000
5 | COc1ccc2nc(SC(C)C(=O)c3ccc(NC(=O)C(C)C)cc3)[nH]c2c1 (stereo not drawn) [Z65841956] | > 1000
6 | COCCn1c(SC(C)C(=O)c2ccc(OC)cc2)nc2ccccc21 (stereo not drawn) [Z16216221] | > 1000
7 | COc1ccc2nc(SC(C)C(=O)c3cc(C)c(C)cc3C)[nH]c2c1 (stereo not drawn) [Z16077531] | > 1000
8 | CCn1c(SC(C)C(=O)c2ccc(NC(C)=O)cc2)nc2cc(S(N)(=O)=O)ccc21 (stereo not drawn) [Z51418527] | > 1000
9 | CCOc1ccc(C(=O)C(C)Sc2nc3ccccc3n2C)cc1 (stereo not drawn) [Z15479255] | > 1000
10 | COc1ccc2nc(SC(C)C(=O)c3ccccc3)[nH]c2c1 (stereo not drawn) [Z16077228] | > 1000
11 | CCc1ccc(C(=O)C(C)Sc2nc3ccc(OC)cc3[nH]2)cc1 (stereo not drawn) [Z16077530] | > 1000
12 | COc1ccc2nc(SC(C)C(=O)c3ccc4c(c3)CCC4)[nH]c2c1 (stereo not drawn) [Z16076970] | > 1000
13 | COc1ccc2nc(SC(C)C(=O)c3ccc(Br)cc3)[nH]c2c1 (stereo not drawn) [Z16077584] | > 1000
14 | CC(Sc1nc2ccccc2n1C(C)C)C(=O)c1ccc(C(C)C)cc1C(C)C (stereo not drawn) [Z54156331] | > 1000
15 | COc1ccc2nc(SC(C)C(=O)c3cc(C)ccc3C)[nH]c2c1 (stereo not drawn) [Z16077483] | > 1000
16 | COc1ccc2nc(SCC(O)c3ccccc3)[nH]c2c1 (stereo not drawn) [Z56784116] | > 1000
17 | COc1ccc(-n2c(SC(C)C(=O)c3cc(C)ccc3C)nc3ccccc32)cc1 (stereo not drawn) [Z19576483] | > 1000
18 | COc1ccc2nc(SC(C)C(=O)c3ccc(NC(=O)C(C)(C)C)cc3)[nH]c2c1 (stereo not drawn) [Z50965385] | > 1000
19 | Cc1ccc2[nH]c(SC(C)C(=O)c3ccc(OC(F)F)cc3)nc2c1 (stereo not drawn) [Z18443016] | > 1000
20 | COc1ccc2nc(SC(C)C(=O)c3ccc(F)cc3)[nH]c2c1 (stereo not drawn) [Z16077798] | > 1000
21 | COc1ccc2nc(SC(C)C(=O)c3[nH]c(C)c(C(C)=O)c3C)[nH]c2c1 (stereo not drawn) [Z98717471] | > 1000
22 | CCCCn1c(SC(C(=O)c2ccc(OC)cc2)c2ccc(OC)cc2)nc2cc(S(N)(=O)=O)ccc21 (stereo not drawn) [Z19162246] | > 1000

Row | SMILES | IC50 [µM]
23 | COc1ccc2nc(SC(C)C(=O)c3ccc(C)c(C)c3)[nH]c2c1 (stereo not drawn) [Z16077488] | > 1000
24 | CCn1c(SC(C)C(=O)c2cccc(Cl)c2)nc2cc(S(N)(=O)=O)ccc21 (stereo not drawn) [Z51418566] | > 1000
25 | COc1ccc(C(=O)C(C)Sc2nc3ccc(OC)cc3[nH]2)c(OC)c1 (stereo not drawn) [Z16077640] | > 1000
26 | CCn1c(SC(C)C(=O)c2ccccc2)nc2cc(S(=O)(=O)N3CCOCC3)ccc21 (stereo not drawn) [Z16669878] | > 1000
27 | COc1ccc(C(=O)C(C)Sc2nc3ccc(OC)cc3[nH]2)cc1 (stereo not drawn) [Z16077705] | > 1000
28 | Cc1ccc2[nH]c(SC(C)C(=O)c3ccc(F)cc3)nc2c1 (stereo not drawn) [Z18443583] | > 1000
29 | CCn1c(SC(C)C(=O)c2cc(C)ccc2C)nc2cc(S(N)(=O)=O)ccc21 (stereo not drawn) [Z51418807] | > 1000
30 | CCOc1ccc2[nH]c(SCCC(=O)c3ccc(F)cc3)nc2c1 [Z19828508] | > 1000
31 | CCn1c(SC(C)C(=O)c2ccc(OC)cc2)nc2cc(S(N)(=O)=O)ccc21 (stereo not drawn) [Z51419018] | > 1000
32 | COc1ccc2nc(SC(C)C(=O)Nc3ccc(F)cc3F)[nH]c2c1 (stereo not drawn) [Z112468618] | > 1000
33 | CCn1c(SC(C)C(=O)c2ccc(Br)cc2)nc2cc(S(N)(=O)=O)ccc21 (stereo not drawn) [Z51418902] | > 1000
34 | CCn1c(SC(C)C(=O)c2ccc(Cl)cc2)nc2cc(S(N)(=O)=O)ccc21 (stereo not drawn) [Z51418567] | > 1000
35 | CCn1c(SC(C)C(=O)c2ccc(NS(C)(=O)=O)cc2)nc2ccccc21 (stereo not drawn) [Z50932618] | > 1000
36 | COc1ccc2nc(SC(C)C(=O)c3ccc(C(C)(C)C)cc3)[nH]c2c1 (stereo not drawn) [Z16077565] | > 1000
37 | COCCn1c(SC(C)C(=O)c2ccc(Br)cc2)nc2ccccc21 (stereo not drawn) [Z16216100] | > 1000
38 | COc1ccc2nc(SC(C)C(=O)c3ccc(NC(C)=O)cc3)[nH]c2c1 (stereo not drawn) [Z16077185] | > 1000
39 | COc1ccc(-n2c(SC(C)C(=O)c3cc(C)c(C)cc3C)nc3ccccc32)cc1 (stereo not drawn) [Z19576531] | > 1000
40 | CCn1c(SC(C)C(=O)c2ccc3c(c2)CCC3)nc2cc(S(=O)(=O)N3CCOCC3)ccc21 (stereo not drawn) [Z16669629] | > 1000
41 | COc1ccc2nc(SCCC(=O)c3ccc(F)cc3)[nH]c2c1 [Z16077963] | > 1000
42 | COc1ccc2nc(SC(C)C(=O)Nc3cc(F)ccc3F)[nH]c2c1 (stereo not drawn) [Z112468620] | > 1000
43 | COc1ccc2nc(SC(C)C(=O)c3cccc(Cl)c3)[nH]c2c1 (stereo not drawn) [Z16077229] | > 1000

Continued, values first:

Row | IC50 [µM] | SMILES
44 | > 1000 | CCC(Sc1nc2ccc(OC)cc2[nH]1)C(=O)c1ccc(OC)cc1 (stereo not drawn) [Z5032180767]
45 | > 1000 | CCC(Sc1nc2ccc(OC)cc2[nH]1)C(=O)c1ccccc1 (stereo not drawn) [Z447938100]
46 | > 1000 | COc1ccc2nc(SCC(=O)c3ccc(O)cc3)[nH]c2c1 [Z112468740]
47 | > 1000 | COc1ccc2nc(SC(C(=O)OC(C)(C)C)C(C)C)[nH]c2c1 (stereo not drawn) [Z5032180761]
48 | > 1000 | CCn1c(SC(C)C(=O)c2c(F)cc(F)cc2F)nc2cc(S(=O)(=O)N3CCCCC3)ccc21 (stereo not drawn) [Z5032180738]
49 | > 1000 | COc1ccc2nc(SC(C)C(=O)c3ccccc3C(F)(F)F)[nH]c2c1 (stereo not drawn) [Z5032180788]
50 | > 1000 | COCCn1c(SC(C)C(=O)c2ccc3c(c2)CCN3C(C)=O)nc2ccccc21 (stereo not drawn) [Z165550978]
51 | > 1000 | COc1ccc2[nH]c(SC(C(N)=O)c3ccc(F)cc3)nc2c1 (stereo not drawn) [Z234729962]
52 | > 1000 | COc1ccc2nc(SC(C)C(=O)c3ccco3)[nH]c2c1 (stereo not drawn) [Z3277796272]
53 | > 1000 | CCC(Sc1nc2ccc(OC)cc2[nH]1)C(=O)c1ccc(NC(C)=O)cc1 (stereo not drawn) [Z1340653159]
54 | > 1000 | COc1ccc2[nH]c(SCC(=O)c3ccc(O)c(O)c3)nc2c1 [Z223822242]
55 | > 1000 | COc1ccc2nc(SC(C)C(=O)c3ccc(OC)c(OC)c3)[nH]c2c1 (stereo not drawn) [Z940567722]
56 | > 1000 | CCn1c(SC(C)C(=O)c2ccc3c(c2)CCN3C(C)=O)nc2ccccc21 (stereo not drawn) [Z165501154]
57 | > 1000 | Cc1ccc2[nH]c(SC(C)C(=O)c3cccc(F)c3)nc2c1 (stereo not drawn) [Z5032180743]
58 | > 1000 | CCC(Sc1nc2ccc(OC)cc2[nH]1)C(=O)c1ccc(Cl)cc1 (stereo not drawn) [Z5032180785]
59 | > 1000 | COc1ccc2nc(SC(C)C(=O)c3ccc4c(c3)CCN4C(C)=O)[nH]c2c1 (stereo not drawn) [Z165591262]
60 | > 1000 | COc1ccc(-n2c(SC(C)C(=O)c3c(F)cc(F)cc3F)nc3ccccc32)cc1 (stereo not drawn) [Z5032180751]
61 | > 1000 | CC(=O)N1CCc2cc(C(=O)C(C)Sc3nc4cc(C)ccc4[nH]3)ccc21 (stereo not drawn) [Z165332254]
62 | > 1000 | COc1ccc(C(=O)C(C)Sc2nc3cc(C)ccc3[nH]2)cc1Cl (stereo not drawn) [Z5032180749]
63 | > 1000 | Cc1ccc2[nH]c(SC(C)C(=O)c3c(F)cc(F)cc3F)nc2c1 (stereo not drawn) [Z1098347474]
64 | > 1000 | COc1ccc2nc(SCCOCC3CCCO3)[nH]c2c1 (stereo not drawn) [Z1258859165]
65 | > 1000 | COc1ccc2nc(SC(C)C(=O)c3cccc(F)c3)[nH]c2c1 (stereo not drawn) [Z5032180758]
66 | > 1000 | Cc1ccc2[nH]c(SC(C)C(=O)c3ccc(F)cc3F)nc2c1 (stereo not drawn) [Z167804418]
